In patent US10995101B2, “2-oxo-thiazole derivatives as A2A inhibitors and compounds for use in the treatment of cancers” (iTeos Therapeutics SA, priority 2017, dated 2021) one finds IC50 and efflux ratio data, which are given here for 20 compounds.

The target in one data set is A2A receptor (Homo sapiens, UniProt P29274). In words: Inhibition of cAMP production in HEK cells. To be noted: HEK-293 cells with A2A receptor. Type of data set: cell-based. In general terms: cAMP levels reflect the balance of adenylyl cyclase and phosphodiesterase activity.
A2A receptor, sequence (P29274 whole entry): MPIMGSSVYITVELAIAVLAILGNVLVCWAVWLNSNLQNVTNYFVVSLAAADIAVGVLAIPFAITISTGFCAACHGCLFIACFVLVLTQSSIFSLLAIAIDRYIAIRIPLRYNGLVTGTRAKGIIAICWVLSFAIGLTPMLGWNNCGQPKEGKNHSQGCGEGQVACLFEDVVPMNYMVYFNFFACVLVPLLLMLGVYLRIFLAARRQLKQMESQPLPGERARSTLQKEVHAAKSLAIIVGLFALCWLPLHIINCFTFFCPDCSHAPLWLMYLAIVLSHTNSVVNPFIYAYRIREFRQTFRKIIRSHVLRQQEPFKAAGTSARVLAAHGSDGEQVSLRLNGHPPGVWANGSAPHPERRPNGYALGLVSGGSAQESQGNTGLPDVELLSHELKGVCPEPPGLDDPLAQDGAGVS
The next data set can be described thus: in vitro. To be noted: human, Caco-2, pH 7.4.
[1] abbreviates: IC50 (nM) (3 nM NECA as agonist, 0.1% BSA), 3 nM NECA as agonist, 0.1% BSA.
Setting [2] is: IC50 (nM) (5 nM NECA as agonist, 2% HSA), 5 nM NECA as agonist, 2% HSA.
[3] abbreviates: IC50 (nM) (5 μM Adenosine as agonist, 2.0% HSA), 5 μM Adenosine as agonist, 2.0% HSA.

In general, IC50 refers to the midpoint of a concentration-inhibition curve. As usually defined, the efflux ratio is a quotient of directional permeabilities that is used to spot active efflux. `Nc1nc2c(sc(=O)n2CCN2CCN(c3ccc(OCCN4CCNCC4)cc3F)CC2)c2nc(-c3ccco3)nn12` [Compound 27, 5-amino-3-(2-(4-(2-fluoro-4-(2-(piperazin-1-yl)ethoxy)phenyl)piperazin-1-yl)ethyl)-8-(furan-2-yl)thiazolo[5,4-e][1,2,4]triazolo[1,5-c]pyrimidin-2(3H)-one]: the IC50 on A2A receptor (setting [1]) worked out at 0.3 nM; at A2A receptor (setting [2]) it was 2 nM; at A2A receptor (setting [3]), 112 nM. Moreover, the efflux ratio at 120 min, 2 μM in the data set “in vitro” was found to be 187.

In the case of `CS(=O)(=O)CCOc1cc(N2CCN(CCn3c(=O)sc4c3nc(N)n3nc(-c5ccco5)nc43)CC2)c(F)cc1F` [Compound 77, 5-amino-3-(2-(4-(2,4-difluoro-5-(2-(methylsulfonyl)ethoxy)phenyl)piperazin-1-yl)ethyl)-8-(furan-2-yl)thiazolo[5,4-e][1,2,4]triazolo[1,5-c]pyrimidin-2(3H)-one], the concentration for half-maximal inhibition (IC50) on A2A receptor (setting [1]) was 0.5 nM; at A2A receptor (setting [2]) it was 3 nM; on A2A receptor (setting [3]) it was 158 nM. Moreover, in the data set “in vitro”, the efflux ratio at 120 min, 2 μM was determined as 43.

Consider `CS(=N)(=O)c1ccc(N2CCN(CCn3c(=O)sc4c3nc(N)n3nc(-c5ccco5)nc43)CC2)c(F)c1` (stereo not drawn) [Compound 80, 5-amino-3-(2-(4-(2-fluoro-4-(S-methylsulfonimidoyl)phenyl)piperazin-1-yl)ethyl)-8-(furan-2-yl)thiazolo[5,4-e][1,2,4]triazolo[1,5-c]pyrimidin-2(3H)-one], for which the 50% inhibitory concentration (IC50) at A2A receptor (setting [1]) worked out at 0.4 nM; on A2A receptor (setting [3]), 146 nM. Also, in “in vitro”, the efflux ratio at 120 min, 2 μM was 149.

Consider `NCCNC(=O)COc1ccc(N2CCN(CCn3c(=O)sc4c3nc(N)n3nc(-c5ccco5)nc43)CC2)c(F)c1` [Compound 52, 2-(4-(4-(2-(5-amino-8-(furan-2-yl)-2-oxothiazolo[5,4-e][1,2,4]triazolo[1,5-c]pyrimidin-3(2H)-yl)ethyl)piperazin-1-yl)-3-fluorophenoxy)-N-(2-aminoethyl)acetamide], for which the half-inhibitory concentration (IC50) is 0.3 nM on A2A receptor (setting [1]), 1 nM at A2A receptor (setting [2]) and 26 nM on A2A receptor (setting [3]). Besides, in the data set “in vitro”, the efflux ratio at 120 min, 2 μM was determined as 34.

In the case of `C[S@+]([O-])CCNC(=O)c1ccc(N2CCN(CCn3c(=O)sc4c3nc(N)n3nc(-c5ccco5)nc43)CC2)c(F)c1` [Compound 123, (S)-4-(4-(2-(5-amino-8-(furan-2-yl)-2-oxothiazolo[5,4-e][1,2,4]triazolo[1,5-c]pyrimidin-3(2H)-yl)ethyl)piperazin-1-yl)-3-fluoro-N-(2-(methylsulfinyl)ethyl)benzamide], the IC50 on A2A receptor (setting [1]) is 1.5 nM; on A2A receptor (setting [3]) it was 1440 nM. The efflux ratio at 120 min, 2 μM in the data set “in vitro” was 120.

With `Nc1nc2c(sc(=O)n2CCN2CCN(c3cc(O[C@@H]4CNC[C@H]4F)c(F)cc3F)CC2)c2nc(-c3ccco3)nn12` (stereo in doubt) [Compound 91, 5-amino-3-(2-(4-(2,4-difluoro-5-(((3R,4R)-4-fluoropyrrolidin-3-yl)oxy)phenyl)piperazin-1-yl)ethyl)-8-(furan-2-yl)thiazolo[5,4-e][1,2,4]triazolo[1,5-c]pyrimidin-2(3H)-one], the half-inhibitory concentration (IC50) on A2A receptor (setting [1]) was found to be 0.8 nM; at A2A receptor (setting [3]), 168 nM. Also, the efflux ratio at 120 min, 2 μM in the data set “in vitro” is 195.

For `NCC(=O)NCCOc1ccc(N2CCN(CCn3c(=O)sc4c3nc(N)n3nc(-c5ccco5)nc43)CC2)c(F)c1` [Compound 71, 2-amino-N-(2-(4-(4-(2-(5-amino-8-(furan-2-yl)-2-oxothiazolo[5,4-e][1,2,4]triazolo[1,5-c]pyrimidin-3(2H)-yl)ethyl)piperazin-1-yl)-3-fluorophenoxy)ethyl)acetamide], the IC50 on A2A receptor (setting [1]) stood at 0.4 nM; at A2A receptor (setting [2]), 3 nM; on A2A receptor (setting [3]), 79 nM. In addition, the efflux ratio at 120 min, 2 μM in the data set “in vitro” amounted to 28.

Consider `Nc1nc2c(sc(=O)n2CCN2CCN(c3ccc(OCC(=O)N4CCNCC4)cc3F)CC2)c2nc(-c3ccco3)nn12` [Compound 24, 5-amino-3-(2-(4-(2-fluoro-4-(2-oxo-2-(piperazin-1-yl)ethoxy)phenyl)piperazin-1-yl)ethyl)-8-(furan-2-yl)thiazolo[5,4-e][1,2,4]triazolo[1,5-c]pyrimidin-2(3H)-one], for which the results for the half-inhibitory concentration (IC50) on A2A receptor (setting [1]), at A2A receptor (setting [2]) and on A2A receptor (setting [3]) were 0.8 nM, 2 nM and 137 nM, respectively. Besides, in “in vitro”, the efflux ratio at 120 min, 2 μM was 117.

Regarding `Nc1nc2c(sc(=O)n2CCN2CCN(c3cc(O[C@H]4CC[S@@+]([O-])CC4)c(F)cc3F)CC2)c2nc(-c3ccco3)nn12` [Compound 111, 5-amino-3-(2-(4-(2,4-difluoro-5-(((1s,4s)-1-oxidotetrahydro-2H-thiopyran-4-yl)oxy)phenyl)piperazin-1-yl)ethyl)-8-(furan-2-yl)thiazolo[5,4-e][1,2,4]triazolo[1,5-c]pyrimidin-2(3H)-one], the IC50 at A2A receptor (setting [1]) worked out at 0.6 nM; on A2A receptor (setting [3]) it was 91 nM. For the same compound, the efflux ratio at 120 min, 2 μM in “in vitro” amounted to 583.

`Nc1nc2c(sc(=O)n2CCN2CCN(c3cc4c(cc3F)NC(=O)C4)CC2)c2nc(-c3ccco3)nn12` [Compound 79, 5-amino-3-(2-(4-(6-fluoro-2-oxoindolin-5-yl)piperazin-1-yl)ethyl)-8-(furan-2-yl)thiazolo[5,4-e][1,2,4]triazolo[1,5-c]pyrimidin-2(3H)-one]: the half-inhibitory concentration (IC50) at A2A receptor (setting [1]) worked out at 0.3 nM; at A2A receptor (setting [3]), 77 nM. Also, in the data set “in vitro”, the efflux ratio at 120 min, 2 μM worked out at 47.

In the case of `Nc1nc2c(sc(=O)n2CCN2CCN(c3cc(OCC4CNCCO4)c(F)cc3F)CC2)c2nc(-c3ccco3)nn12` (stereo not drawn) [Compound 89, 5-amino-3-(2-(4-(2,4-difluoro-5-(morpholin-2-ylmethoxy)phenyl)piperazin-1-yl)ethyl)-8-(furan-2-yl)thiazolo[5,4-e][1,2,4]triazolo[1,5-c]pyrimidin-2(3H)-one], the IC50 on A2A receptor (setting [1]) amounted to 0.6 nM; at A2A receptor (setting [3]) it was 9 nM. The efflux ratio at 120 min, 2 μM in “in vitro” was found to be 456.

Take `C[S@+]([O-])c1ccc(N2CCN(CCn3c(=O)sc4c3nc(N)n3nc(-c5ccco5)nc43)CC2)c(F)c1` (single isomer, unassigned) [Compound 120]: the concentration for half-maximal inhibition (IC50) at A2A receptor (setting [1]) turned out to be 0.4 nM; at A2A receptor (setting [3]), 123 nM. Further, the efflux ratio at 120 min, 2 μM in “in vitro” came out at 33.

As to `Nc1nc2c(sc(=O)n2CCN2CCN(c3ccc(O[C@H]4CNC[C@H]4F)cc3F)CC2)c2nc(-c3ccco3)nn12` [Compound 104, 5-amino-3-(2-(4-(2-fluoro-4-(((3S,4R)-4-fluoropyrrolidin-3-yl)oxy)phenyl)piperazin-1-yl)ethyl)-8-(furan-2-yl)thiazolo[5,4-e][1,2,4]triazolo[1,5-c]pyrimidin-2(3H)-one], the IC50 at A2A receptor (setting [1]) was 0.5 nM; at A2A receptor (setting [3]) it was 45 nM. For the same compound, the efflux ratio at 120 min, 2 μM in the data set “in vitro” is 20.

As to `C[S@@+]([O-])c1ccc(N2CCN(CCn3c(=O)sc4c3nc(N)n3nc(-c5ccco5)nc43)CC2)c(F)c1` (single isomer, unassigned) [Compound 119], the results for the IC50 on A2A receptor (setting [1]) and at A2A receptor (setting [3]) were 0.4 nM and 183 nM, respectively. Further, the efflux ratio at 120 min, 2 μM in “in vitro” turned out to be 31.

In the case of `Nc1nc2c(sc(=O)n2CCN2CCN(c3ccc(OC4CCNC4)cc3F)CC2)c2nc(-c3ccco3)nn12` (stereo not drawn) [Compound 48, 5-amino-3-(2-(4-(2-fluoro-4-(pyrrolidin-3-yloxy)phenyl)piperazin-1-yl)ethyl)-8-(furan-2-yl)thiazolo[5,4-e][1,2,4]triazolo[1,5-c]pyrimidin-2(3H)-one], the concentration for half-maximal inhibition (IC50) at A2A receptor (setting [1]) amounted to 0.1 nM; at A2A receptor (setting [3]), 9 nM. Moreover, in the data set “in vitro”, the efflux ratio at 120 min, 2 μM came out at 166.

`Nc1nc2c(sc(=O)n2CCN2CCN(c3ccc(O[C@H]4CC[S@+]([O-])CC4)cc3F)CC2)c2nc(-c3ccco3)nn12` (single isomer, unassigned) [Compound 122, 5-amino-3-(2-(4-(2-fluoro-4-(((1r,4r)-1-oxidotetrahydro-2H-thiopyran-4-yl)oxy)phenyl)piperazin-1-yl)ethyl)-8-(furan-2-yl)thiazolo[5,4-e][1,2,4]triazolo[1,5-c]pyrimidin-2(3H)-one]: the concentration for half-maximal inhibition (IC50) was found to be 0.8 nM on A2A receptor (setting [1]) and 187 nM at A2A receptor (setting [3]). Further, the efflux ratio at 120 min, 2 μM in the data set “in vitro” stood at 349.

In the case of `Nc1nc2c(sc(=O)n2CCN2CCN(c3ccc(OCC(=O)O)cc3)CC2)c2nc(-c3ccco3)nn12` [Compound 10, 2-(4-(4-(2-(5-amino-8-(furan-2-yl)-2-oxothiazolo[5,4-e][1,2,4]triazolo[1,5-c]pyrimidin-3(2H)-yl)ethyl)piperazin-1-yl)phenoxy)acetic acid], the IC50 at A2A receptor (setting [1]) worked out at 2.3 nM; at A2A receptor (setting [2]), 14 nM; on A2A receptor (setting [3]) it was 607 nM. Also, the efflux ratio at 120 min, 2 μM in the data set “in vitro” came to 24.

Consider `NC(=O)COc1ccc(N2CCN(CCn3c(=O)sc4c3nc(N)n3nc(-c5ccco5)nc43)CC2)c(F)c1` [Compound 54, 2-(4-(4-(2-(5-amino-8-(furan-2-yl)-2-oxothiazolo[5,4-e][1,2,4]triazolo[1,5-c]pyrimidin-3(2H)-yl)ethyl)piperazin-1-yl)-3-fluorophenoxy)acetamide], for which the concentration for half-maximal inhibition (IC50) on A2A receptor (setting [1]) came out at 0.8 nM; on A2A receptor (setting [2]), 3 nM; on A2A receptor (setting [3]), 138 nM. The efflux ratio at 120 min, 2 μM in “in vitro” turned out to be 24.

Regarding `N#CCOc1cc(N2CCN(CCn3c(=O)sc4c3nc(N)n3nc(-c5ccco5)nc43)CC2)c(F)cc1F` [Compound 74, 2-(5-(4-(2-(5-amino-8-(furan-2-yl)-2-oxothiazolo[5,4-e][1,2,4]triazolo[1,5-c]pyrimidin-3(2H)-yl)ethyl)piperazin-1-yl)-2,4-difluorophenoxy)acetonitrile], the figures for the IC50 at A2A receptor (setting [1]), at A2A receptor (setting [2]) and on A2A receptor (setting [3]) were 1.2 nM, 20 nM and 495 nM, respectively. Besides, the efflux ratio at 120 min, 2 μM in “in vitro” turned out to be 4.

As to `Nc1nc2c(sc(=O)n2CCN2CCN(c3ccc(OCC4CCNCC4)cc3F)CC2)c2nc(-c3ccco3)nn12` [Compound 25, 5-amino-3-(2-(4-(2-fluoro-4-(piperidin-4-ylmethoxy)phenyl)piperazin-1-yl)ethyl)-8-(furan-2-yl)thiazolo[5,4-e][1,2,4]triazolo[1,5-c]pyrimidin-2(3H)-one], the IC50 at A2A receptor (setting [1]) amounted to 1.2 nM; on A2A receptor (setting [2]) it was 6 nM; at A2A receptor (setting [3]), 300 nM. The efflux ratio at 120 min, 2 μM in “in vitro” turned out to be 472.
